# Earlier results in patent US20210169807A1, “PHARMACEUTICAL COMPOSITION COMPRISING AN ATYPICAL ANTIPSYCHOTIC AGENT AND METHOD FOR THE PREPARATION THEREOF” (priority 2018, published 2021).
# Where two headings read alike, the source gives them in different places.
smiles,measurement,setting,value
"Cc1nc2n(c(=O)c1CCN1CCC(c3noc4cc(F)ccc34)CC1)CCCC2O (stereo not drawn) [Paliperidone, 3-[2-[4-(6-fluoro-1,2-benzisoxazol-3-yl)-1-piperidinyl]ethyl]-6,7,8,9-tetrahydro-9-hydroxy-2-methyl-4H-pyrido[1,2-a]pyrimidin-4-one]",solubility,in 0.1N HCl,slightly soluble
same,solubility,in dichloromethane,sparingly soluble
same,solubility,in water,insoluble
